From patent US20040029908A1, “Tricyclo compounds, a process for their production and a pharmaceutical composition containing the same” (FUJISAWA PHARMACEUTICAL CO., LTD., priority 1984, published 2004)
Values after ≈ are worked out from the molar mass of the structure shown.

Experiments:
[1] = system: mouse MLR (C57BL/6 responder cells, mitomycin C treated BALB/C stimulator cells); experiment: Suppression of in vitro Mixed Lymphocyte Reaction (MLR), 3H-thymidine uptake; assay type: cell-based
Experimental: The MLR test was performed in microtiter plates, with each well containing 5 ×10^5 C57BL/6 responder cells (H-2^b ), 5 ×10^5 mitomycin C treated (25μg/ml mitomycin C at 37° C. for 30 minutes and washed three times with RPMI 1640 medium) BALB/C stimulator cells (H-2^d) in 0.2 ml RPMI 1640 medium supplemented with 10% fetal calf serum, 2mM sodium hydrogen carbonate, penicillin (50 unit/ml) and streptomycin (50 μg/ml) . The cells were incubated at 37 ° C. in humidified atmosphere of 5% carbon dioxide and 95% of air for 68 hours and pulsed with ^3H-thymidine (0.5 μCi) 4 hours before the cells were collected. The object compound of this invention was dissolved in ethanol and further diluted in RPMI 1640 medium and added to the cultures to give final concentrations of 0.1 μg/ml or less.

[2] = system: Type II Collagen-Induced-Arthritis in female Lewis rats; experiment: Type II Collagen-Induced-Arthritis in Rats; assay type: in vivo, rat; conditions: observation period of 3 weeks
Experimental: Collagen was dissolved in cold 0.01 M acetic acid at a concentration of 2 mg/ml. The solution was emulsified in an equal volume of incomplete Freund's adjuvant. A total volume of 0.5 ml of the cold emulsion was injected intradermally at several sites on the back and one or two sites into the tail of female Lewis rats. The FR-900506 substance was dissolved in olive oil and administered orally. Control rats immunized with same amount of type II collagen received oral administrations of olive oil alone. Incidences of the arthritis were observed.

[3] = system: Experimental Allergic Encephalomyelytis in SJL/J Mice; experiment: Experimental Allergic Encephalomyelitis (EAE) in SJL/J Mice; assay type: in vivo, mouse
[4] = system: Contact-Delayed Hypersensitivity in ICR mice; experiment: Contact-Delayed Hypersensitivity in mice (picryl chloride); assay type: in vivo, mouse
Experimental: Female ICR mice were used for this test. A tenth of a 7% (w/v) solution of picryl chloride in ethanol prepared at the time of the experiment was applied to the ventral surface of previously shaved animals. Such a sensitization was performed twice at intervals of 7 days. Seven days later, the thickness of the ears were measured with an ordinary engineer's micrometer and a 1% (w/v) solution of picryl chloride in olive oil was painted to both surfaces of each ear. The inflammation was evaluated 24 hours later by measuring the both of ears. The results were expressed as the average increase in thickness of the ears measured in units of 10 ^−3cm. The FR-900506 substance was injected for 14 days orally, starting from the first sensitization.

C=CCC1/C=C(\C)CC(C)CC(OC)C2OC(O)(C(=O)C(=O)N3CCCCC3C(=O)OC(/C(C)=C/C3CCC(O)C(OC)C3)C(C)C(O)CC1=O)C(C)CC2OC (stereo not shown) [FR-900506, 17-Allyl-1,14-dihydroxy-12-[2-(4-hydroxy-3-methoxycyclohexyl)-1-methyvinyl]-23-25-dimethoxy-13,19,21,27-tetramethyl-11,28-dioxa-4-azatricyclo[22.3.1.0^4,9]octacos-18-ene-2,3,10,16-tetraone]
Radioactivities (mean C.P.M. ± S.E.) ([1]; 0.078 ng/ml): 7189 ± 365 C.P.M.
Suppression (%) ([1]; 0.078 ng/ml): 27.6%
Radioactivities (mean C.P.M. ± S.E.) ([1]; 0.156 ng/ml): 5490 ± 431 C.P.M.
Suppression (%) ([1]; 0.156 ng/ml): 44.7%
Radioactivities (mean C.P.M. ± S.E.) ([1]; 0.313 ng/ml): 3880 ± 222 C.P.M.
Suppression (%) ([1]; 0.313 ng/ml): 60.9%
Radioactivities (mean C.P.M. ± S.E.) ([1]; 0.625 ng/ml): 614 ± 57 C.P.M.
Suppression (%) ([1]; 0.625 ng/ml): 93.8%
Radioactivities (mean C.P.M. ± S.E.) ([1]; 1.25 ng/ml): 168 ± 23 C.P.M.
Suppression (%) ([1]; 1.25 ng/ml): 98.3%
Radioactivities (mean C.P.M. ± S.E.) ([1]; 2.5 ng/ml): 54 ± 4 C.P.M.
Suppression (%) ([1]; 2.5 ng/ml): 99.5%
IC50 ([1]; Lymphocyte, mouse MLR, 68 hours, 3H-thymidine): 0.26 ng/mL (≈ 0.323 nM)
Incidence of Arthritis ([2]; 3.2 mg/kg per day orally for 14 days): 0/5
Suppression of arthritis induction (in words) ([2]; daily treatment for 14 days): complete suppression of arthritis induction
Number of Animals with Disease at Day 24 ([3]; 32 mg/kg orally for 19 days starting on day 0): 0/5
Development of clinical signs of EAE (in words) ([3]; orally for 19 days starting on day 0): clearly prevented the development of clinical signs of EAE
Increase of ears at 24 hours after challenge ([4]; 32 mg/kg orally for 14 days): 6.4 ± 1.6 × 10^−3 cm
Increase of ears at 24 hours after challenge ([4]; 100 mg/kg orally for 14 days): 2.2 ± 1.5 × 10^−3 cm
